For experiment [1], the system named is Vero. Description: cells. It counts as functional, cell-based. The following applies: Chlorocebus sabaeus.
The target in experiment [2] is Neuropeptide Y receptor type 1 (Homo sapiens, UniProt P25929). Kind of experiment: Fluorescence-based dose response cell-based high-throughput screening assay for agonists of NPY-Y1. [Related pubchem assays: 1697 (Screening assay (NPY-Y1 agonists).), 1359 (Screening assay (NPY-Y2 potentiators or agonists).), 1304 (Screening assay (NPY-Y1 potentiators or agonists).), 1704 (Screening assay (CNGC inhibitors).), 1791 (Summary AID.)]. It is filed as functional.
Neuropeptide Y receptor type 1, sequence (P25929 whole entry): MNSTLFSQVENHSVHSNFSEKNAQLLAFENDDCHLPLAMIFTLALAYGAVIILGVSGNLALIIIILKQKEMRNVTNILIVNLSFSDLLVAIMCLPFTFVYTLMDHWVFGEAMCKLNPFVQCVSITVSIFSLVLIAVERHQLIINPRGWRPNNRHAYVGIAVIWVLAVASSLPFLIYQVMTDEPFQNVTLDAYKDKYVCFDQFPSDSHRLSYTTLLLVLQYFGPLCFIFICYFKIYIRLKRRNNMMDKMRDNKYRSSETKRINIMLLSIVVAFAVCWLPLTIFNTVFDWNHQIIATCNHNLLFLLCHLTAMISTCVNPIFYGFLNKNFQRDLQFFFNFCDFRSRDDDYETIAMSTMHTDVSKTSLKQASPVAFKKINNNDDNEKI

In experiment [3] the target is Neuropeptide Y receptor type 2 (Homo sapiens, UniProt P49146). Description: Fluorescence-based counterscreen for agonists of NPY-Y1: cell-based high-throughput dose response assay for agonists of NPY-Y2. It is filed as functional. Background: A counterscreen serves to expose hits that act by an unwanted route or on another target.
Neuropeptide Y receptor type 2, sequence (P49146 whole entry): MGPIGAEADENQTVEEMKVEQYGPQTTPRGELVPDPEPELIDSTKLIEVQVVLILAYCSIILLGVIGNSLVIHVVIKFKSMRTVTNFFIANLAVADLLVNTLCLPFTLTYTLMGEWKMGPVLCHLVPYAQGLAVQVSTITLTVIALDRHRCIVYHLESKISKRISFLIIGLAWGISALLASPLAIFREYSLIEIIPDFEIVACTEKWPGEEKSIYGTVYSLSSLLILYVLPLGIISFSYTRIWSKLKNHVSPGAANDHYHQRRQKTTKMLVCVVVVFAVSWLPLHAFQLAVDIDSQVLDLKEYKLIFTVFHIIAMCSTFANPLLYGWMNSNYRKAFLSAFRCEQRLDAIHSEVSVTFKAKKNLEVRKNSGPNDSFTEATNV
Experiment [4] addresses T1, Long-chain-fatty-acid--AMP ligase FadD28 (Mycobacterium tuberculosis, UniProt P9WQ59).
T1 sequence (P9WQ59 whole entry): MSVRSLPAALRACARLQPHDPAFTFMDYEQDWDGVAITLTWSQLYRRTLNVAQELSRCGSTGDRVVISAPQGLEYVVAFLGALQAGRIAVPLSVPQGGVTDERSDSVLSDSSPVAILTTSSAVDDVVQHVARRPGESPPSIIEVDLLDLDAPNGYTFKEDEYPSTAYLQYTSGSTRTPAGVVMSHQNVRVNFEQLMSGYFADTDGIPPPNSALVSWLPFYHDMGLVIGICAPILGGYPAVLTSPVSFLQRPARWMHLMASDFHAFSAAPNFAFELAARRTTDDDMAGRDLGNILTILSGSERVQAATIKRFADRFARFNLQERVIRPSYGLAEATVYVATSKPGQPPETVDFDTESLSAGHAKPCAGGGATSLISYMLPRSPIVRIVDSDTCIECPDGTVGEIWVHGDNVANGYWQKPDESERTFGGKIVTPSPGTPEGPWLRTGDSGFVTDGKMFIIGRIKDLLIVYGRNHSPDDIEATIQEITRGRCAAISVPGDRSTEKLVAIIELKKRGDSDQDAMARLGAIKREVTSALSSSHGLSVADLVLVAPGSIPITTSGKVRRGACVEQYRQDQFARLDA
Kind of experiment: Fluorescence polarization aasay to screen for inhibitors that compete for the binding of FadD28 to a bisubstrate Measured in Biochemical System Using Plate Reader - 2147-01_Inhibitor_Dose_CherryPick_Activity. It counts as functional, Mycobacterium tuberculosis H37Rv. (In general: Fluorescence polarisation rises when a labelled molecule tumbles more slowly, as on binding a larger partner.)

Experiment [5] is described as follows: viability loss in HepG2 hepatoma cells – cell-based, ATP luminescence, cherry-pick, activator set 2, cytotoxicity control, dose response (AID 1053143). It is filed as functional.
Experiment [6] concerns Vero. Description: cells. The following applies: Chlorocebus sabaeus. It counts as functional.
The subject of experiment [7] is HEK293. Description: Fluorescence-based counterscreen for potentiators or agonists of NPY-Y1: cell-based high-throughput dose response assay for inhibitors of cyclic nucleotide gated ion channel (CNGC) activity. In this assay, the parental HEK293 cell line transfected with a cyclic-nucleotide gated ion channel (CNGC)-based cAMP sensor is used to measure inhibition of isoproterenol-induced CNGC …. The following applies: Homo sapiens. It is filed as functional.

The target of experiment [8] is Dual specificity tyrosine-phosphorylation-regulated kinase 1A (Rattus norvegicus, UniProt Q63470). It counts as biochemical, Homo sapiens.
For experiment [9], the target named is Bcl-2-like protein 1 (Homo sapiens, UniProt Q07817). Kind of experiment: blockers of BCLXL peptide binding – biochemical, fluorescence polarization, 1536-well, selectivity assay for MCL1 inhibitor project, dose response (AID 2218).
Bcl-2-like protein 1, sequence (Q07817 whole entry): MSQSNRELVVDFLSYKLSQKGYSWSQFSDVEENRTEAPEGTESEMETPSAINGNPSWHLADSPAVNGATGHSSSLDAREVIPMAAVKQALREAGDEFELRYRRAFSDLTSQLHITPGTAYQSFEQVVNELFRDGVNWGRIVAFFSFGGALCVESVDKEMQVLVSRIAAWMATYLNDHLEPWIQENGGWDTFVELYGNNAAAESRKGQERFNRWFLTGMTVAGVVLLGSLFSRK
In experiment [10] the target is T2, Mannose-6-phosphate isomerase (Homo sapiens, UniProt P34949).
T2 sequence (P34949 whole entry): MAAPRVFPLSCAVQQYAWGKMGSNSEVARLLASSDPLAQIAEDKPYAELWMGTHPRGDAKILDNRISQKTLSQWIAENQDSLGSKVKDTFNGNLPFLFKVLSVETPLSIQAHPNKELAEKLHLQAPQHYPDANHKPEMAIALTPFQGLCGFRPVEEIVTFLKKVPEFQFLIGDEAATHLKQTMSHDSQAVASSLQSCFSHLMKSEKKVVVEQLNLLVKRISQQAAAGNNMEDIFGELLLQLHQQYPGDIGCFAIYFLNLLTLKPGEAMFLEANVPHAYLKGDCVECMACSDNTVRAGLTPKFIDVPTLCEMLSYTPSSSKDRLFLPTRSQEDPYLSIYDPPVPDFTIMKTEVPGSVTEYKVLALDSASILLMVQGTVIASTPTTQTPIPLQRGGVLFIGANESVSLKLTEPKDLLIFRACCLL
Kind of experiment: MPI inhibition at elevated mannose 6-phosphate – biochemical, fluorescence intensity, high mannose 6-phosphate, primary screen (AID 1220).

The target in experiment [11] is T3, Histone-lysine N-methyltransferase NSD2 (Homo sapiens, UniProt O96028).
T3 sequence (O96028 whole entry): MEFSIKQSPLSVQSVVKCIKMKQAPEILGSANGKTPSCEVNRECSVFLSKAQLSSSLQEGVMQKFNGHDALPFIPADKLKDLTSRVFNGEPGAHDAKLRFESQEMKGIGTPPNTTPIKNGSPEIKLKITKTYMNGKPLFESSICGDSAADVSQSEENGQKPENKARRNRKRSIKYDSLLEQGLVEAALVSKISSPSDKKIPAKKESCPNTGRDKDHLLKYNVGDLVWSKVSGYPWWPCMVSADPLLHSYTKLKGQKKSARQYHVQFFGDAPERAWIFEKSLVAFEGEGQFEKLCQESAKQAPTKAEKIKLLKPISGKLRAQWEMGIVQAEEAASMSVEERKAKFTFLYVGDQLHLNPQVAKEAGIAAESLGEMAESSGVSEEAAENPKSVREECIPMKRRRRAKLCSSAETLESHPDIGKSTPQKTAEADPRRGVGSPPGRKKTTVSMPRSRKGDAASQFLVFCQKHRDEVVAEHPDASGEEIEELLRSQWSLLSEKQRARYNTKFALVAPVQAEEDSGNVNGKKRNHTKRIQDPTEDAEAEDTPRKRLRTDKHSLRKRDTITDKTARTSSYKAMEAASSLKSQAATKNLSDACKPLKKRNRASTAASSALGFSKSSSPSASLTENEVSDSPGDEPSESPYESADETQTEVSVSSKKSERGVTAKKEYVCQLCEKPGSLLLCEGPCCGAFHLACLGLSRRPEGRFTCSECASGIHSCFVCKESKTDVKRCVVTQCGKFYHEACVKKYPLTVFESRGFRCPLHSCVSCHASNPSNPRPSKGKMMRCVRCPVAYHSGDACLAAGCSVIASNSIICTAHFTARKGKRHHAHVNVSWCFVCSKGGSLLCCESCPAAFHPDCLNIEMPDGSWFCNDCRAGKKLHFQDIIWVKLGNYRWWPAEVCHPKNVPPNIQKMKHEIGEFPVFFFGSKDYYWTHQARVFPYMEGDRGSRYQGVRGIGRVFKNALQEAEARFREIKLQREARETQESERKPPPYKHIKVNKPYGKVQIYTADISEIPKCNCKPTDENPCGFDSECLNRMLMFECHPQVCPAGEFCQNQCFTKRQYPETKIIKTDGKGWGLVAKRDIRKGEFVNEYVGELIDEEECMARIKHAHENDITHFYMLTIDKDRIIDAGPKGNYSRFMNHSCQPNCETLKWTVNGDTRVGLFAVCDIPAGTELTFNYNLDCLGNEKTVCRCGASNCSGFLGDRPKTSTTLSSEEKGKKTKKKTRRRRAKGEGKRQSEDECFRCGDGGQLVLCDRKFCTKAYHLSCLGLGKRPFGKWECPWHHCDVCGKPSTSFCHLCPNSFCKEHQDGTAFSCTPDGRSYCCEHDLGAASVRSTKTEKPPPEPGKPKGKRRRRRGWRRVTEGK
It counts as biochemical.

Experiment [12] concerns the target T2, Mannose-6-phosphate isomerase. Kind of experiment: MPI enzyme activity inhibition – biochemical, fluorescence intensity, coupled assay, primary screen (AID 1209).
Experiment [13] addresses Procathepsin L (Homo sapiens, UniProt P07711).
For experiment [14], the target named is T4, Rac GTPase-activating protein 1 (Homo sapiens, UniProt Q9H0H5).
T4 sequence (Q9H0H5 whole entry): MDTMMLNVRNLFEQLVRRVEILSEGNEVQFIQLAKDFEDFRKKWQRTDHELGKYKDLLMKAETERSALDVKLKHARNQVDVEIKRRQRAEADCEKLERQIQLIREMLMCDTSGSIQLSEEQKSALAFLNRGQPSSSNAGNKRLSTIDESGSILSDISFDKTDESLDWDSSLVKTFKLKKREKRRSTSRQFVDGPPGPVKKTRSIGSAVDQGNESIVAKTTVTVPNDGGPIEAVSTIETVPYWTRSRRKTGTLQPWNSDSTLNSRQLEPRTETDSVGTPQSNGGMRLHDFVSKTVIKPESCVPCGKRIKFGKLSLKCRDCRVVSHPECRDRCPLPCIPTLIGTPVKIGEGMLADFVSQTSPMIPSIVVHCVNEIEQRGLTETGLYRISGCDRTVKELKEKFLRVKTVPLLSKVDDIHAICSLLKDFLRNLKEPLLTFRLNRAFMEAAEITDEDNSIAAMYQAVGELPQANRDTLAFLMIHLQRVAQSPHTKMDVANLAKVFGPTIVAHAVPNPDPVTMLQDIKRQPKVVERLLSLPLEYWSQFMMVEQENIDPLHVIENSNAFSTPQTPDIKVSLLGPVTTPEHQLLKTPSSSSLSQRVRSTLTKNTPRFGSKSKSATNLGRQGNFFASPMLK
Description: blockers of MgcRacGAP-driven Rac1 GTP hydrolysis – biochemical, ADP Hunter fluorescence, primary and confirmatory, confirmation (AID 624330). It counts as functional.

Experiment [15] deals with Induced myeloid leukemia cell differentiation protein Mcl-1 (Homo sapiens, UniProt Q07820). Kind of experiment: blockers of MCL1 binding to BIM peptide – biochemical, fluorescence polarization, BIM-BH3 peptide, 1536-well, dose response (AID 2217).
Induced myeloid leukemia cell differentiation protein Mcl-1, sequence (Q07820 whole entry): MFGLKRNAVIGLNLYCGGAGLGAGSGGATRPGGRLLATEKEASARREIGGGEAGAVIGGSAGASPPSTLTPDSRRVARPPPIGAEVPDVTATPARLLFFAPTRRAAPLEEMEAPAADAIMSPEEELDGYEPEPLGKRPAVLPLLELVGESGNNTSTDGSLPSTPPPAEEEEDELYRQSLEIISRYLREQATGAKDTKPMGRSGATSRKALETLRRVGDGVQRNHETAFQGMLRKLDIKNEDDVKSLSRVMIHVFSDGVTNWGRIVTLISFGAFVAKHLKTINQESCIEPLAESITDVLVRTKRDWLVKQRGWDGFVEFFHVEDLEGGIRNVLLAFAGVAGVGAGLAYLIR
Experiment [16] addresses Aspartyl aminopeptidase (Plasmodium falciparum 3D7, UniProt Q8I2J3).
The target in experiment [17] is Large T antigen (Simian virus 40, UniProt P03070). It counts as functional, Betapolyomavirus macacae.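 Note: Confirmatory-stage PubChem screen for compounds that inhibit SV40 T antigen.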
Large T antigen, sequence (P03070 whole entry): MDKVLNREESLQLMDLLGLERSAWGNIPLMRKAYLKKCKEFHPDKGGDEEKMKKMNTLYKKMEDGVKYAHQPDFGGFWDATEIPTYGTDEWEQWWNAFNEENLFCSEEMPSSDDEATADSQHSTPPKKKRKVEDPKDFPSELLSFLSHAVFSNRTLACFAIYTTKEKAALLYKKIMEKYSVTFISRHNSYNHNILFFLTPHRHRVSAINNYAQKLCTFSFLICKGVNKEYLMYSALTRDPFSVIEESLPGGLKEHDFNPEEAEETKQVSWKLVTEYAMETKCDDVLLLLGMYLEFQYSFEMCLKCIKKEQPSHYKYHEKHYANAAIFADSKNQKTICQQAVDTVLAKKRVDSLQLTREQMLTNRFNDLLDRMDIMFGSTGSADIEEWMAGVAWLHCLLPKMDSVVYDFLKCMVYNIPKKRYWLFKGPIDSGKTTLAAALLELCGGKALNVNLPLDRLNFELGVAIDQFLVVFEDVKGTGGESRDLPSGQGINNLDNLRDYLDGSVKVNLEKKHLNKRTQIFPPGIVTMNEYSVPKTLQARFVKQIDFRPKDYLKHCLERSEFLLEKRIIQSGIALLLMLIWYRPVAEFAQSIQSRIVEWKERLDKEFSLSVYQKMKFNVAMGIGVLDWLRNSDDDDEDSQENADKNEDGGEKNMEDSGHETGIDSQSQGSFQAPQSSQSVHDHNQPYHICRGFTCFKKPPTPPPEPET
Experiment [18] has as its target Interleukin-8 (Homo sapiens, UniProt P10145). Description: SAR analysis of tumor necrosis factor alpha (TNF-alpha) induced IL-8 secretion in MCF-7/NOD1 cells. [Related pubchem assays (depositor defined):AID1575, AID2250, AID2260]. It counts as functional, cell-based.
In experiment [19] the target is T5, Eukaryotic translation initiation factor 2-alpha kinase 3 (Homo sapiens, UniProt Q9NZJ5). Kind of experiment: Dose response cell-based high-throughput screening assay to measure PERK inhibition. [Related pubchem assays: 1416 ]. It counts as functional.
T5 sequence (Q9NZJ5 whole entry): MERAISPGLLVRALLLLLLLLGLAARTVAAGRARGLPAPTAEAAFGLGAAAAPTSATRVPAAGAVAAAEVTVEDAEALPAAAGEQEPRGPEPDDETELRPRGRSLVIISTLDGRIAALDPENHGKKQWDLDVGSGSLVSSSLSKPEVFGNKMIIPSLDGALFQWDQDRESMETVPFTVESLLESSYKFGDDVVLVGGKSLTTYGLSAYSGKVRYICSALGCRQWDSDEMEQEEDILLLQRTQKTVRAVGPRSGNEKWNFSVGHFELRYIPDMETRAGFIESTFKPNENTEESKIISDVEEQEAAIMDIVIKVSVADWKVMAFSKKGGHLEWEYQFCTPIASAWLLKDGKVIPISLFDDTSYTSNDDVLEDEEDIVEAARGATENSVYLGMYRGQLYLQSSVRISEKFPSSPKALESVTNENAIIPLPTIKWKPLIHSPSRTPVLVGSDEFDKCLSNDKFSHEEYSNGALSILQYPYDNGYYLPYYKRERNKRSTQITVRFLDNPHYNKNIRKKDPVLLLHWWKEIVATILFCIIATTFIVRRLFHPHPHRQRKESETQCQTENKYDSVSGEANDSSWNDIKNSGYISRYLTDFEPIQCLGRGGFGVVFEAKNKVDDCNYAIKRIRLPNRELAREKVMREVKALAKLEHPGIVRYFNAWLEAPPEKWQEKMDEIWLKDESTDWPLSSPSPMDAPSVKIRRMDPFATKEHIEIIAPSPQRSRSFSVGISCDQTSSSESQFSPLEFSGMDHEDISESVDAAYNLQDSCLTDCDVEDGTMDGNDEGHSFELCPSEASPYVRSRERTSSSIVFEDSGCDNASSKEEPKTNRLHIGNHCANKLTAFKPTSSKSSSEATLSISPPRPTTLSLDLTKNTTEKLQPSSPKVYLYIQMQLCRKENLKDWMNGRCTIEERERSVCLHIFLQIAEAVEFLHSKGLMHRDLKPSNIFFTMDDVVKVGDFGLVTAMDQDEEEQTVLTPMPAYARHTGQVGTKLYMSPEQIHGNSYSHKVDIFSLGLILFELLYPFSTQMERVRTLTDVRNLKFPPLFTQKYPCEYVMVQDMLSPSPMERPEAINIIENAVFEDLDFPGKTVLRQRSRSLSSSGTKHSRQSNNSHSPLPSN
Experiment [20] deals with T5, Eukaryotic translation initiation factor 2-alpha kinase 3. Kind of experiment: Counterscreen assay for PERK inhibitors: Dose response cell-based high throughput screening assay to measure inhibition of PERK at 6 hours. [Related pubchem assays: 1522, 1416 ]. It is filed as functional.

This is an account of results in ChEMBL document CHEMBL1201862, “PubChem BioAssay data set” (2004).

Each structure is given as a SMILES string. Active and inactive are the calls of the source.

Interleukin-8, sequence (P10145 whole entry): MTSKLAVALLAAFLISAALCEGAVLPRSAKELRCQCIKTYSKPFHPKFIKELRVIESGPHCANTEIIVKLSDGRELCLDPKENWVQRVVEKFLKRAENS
Procathepsin L, sequence (P07711 whole entry): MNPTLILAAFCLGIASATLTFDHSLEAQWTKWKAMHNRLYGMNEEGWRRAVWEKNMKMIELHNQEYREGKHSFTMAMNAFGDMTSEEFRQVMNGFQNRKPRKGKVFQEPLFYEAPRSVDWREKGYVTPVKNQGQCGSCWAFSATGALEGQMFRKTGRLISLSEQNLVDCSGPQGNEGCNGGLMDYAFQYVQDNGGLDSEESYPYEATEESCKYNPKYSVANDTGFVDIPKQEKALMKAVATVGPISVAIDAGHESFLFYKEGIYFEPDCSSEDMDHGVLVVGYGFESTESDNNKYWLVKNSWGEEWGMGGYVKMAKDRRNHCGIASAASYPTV
Aspartyl aminopeptidase, sequence (Q8I2J3 whole entry): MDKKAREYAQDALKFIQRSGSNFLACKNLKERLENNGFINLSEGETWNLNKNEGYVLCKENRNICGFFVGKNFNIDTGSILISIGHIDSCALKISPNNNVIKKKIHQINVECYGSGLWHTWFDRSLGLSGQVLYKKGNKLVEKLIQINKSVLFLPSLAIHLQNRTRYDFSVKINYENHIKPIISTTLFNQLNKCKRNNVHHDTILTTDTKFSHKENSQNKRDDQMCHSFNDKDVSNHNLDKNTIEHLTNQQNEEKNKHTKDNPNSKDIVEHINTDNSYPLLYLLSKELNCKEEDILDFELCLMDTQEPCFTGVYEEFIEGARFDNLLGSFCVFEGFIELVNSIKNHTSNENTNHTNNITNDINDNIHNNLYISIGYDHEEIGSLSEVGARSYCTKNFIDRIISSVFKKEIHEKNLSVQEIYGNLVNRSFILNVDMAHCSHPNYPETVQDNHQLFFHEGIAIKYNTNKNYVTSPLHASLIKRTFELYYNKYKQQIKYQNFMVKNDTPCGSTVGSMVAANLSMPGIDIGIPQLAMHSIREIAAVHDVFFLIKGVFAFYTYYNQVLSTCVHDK

Regarding `Cn1cc([N+](=O)[O-])c(C(=O)Nc2ccc(C3CCCCC3)cc2)n1`, the IC50 in experiment [1] is 9.92 µM (active); in [7], 8.17 µM (active). In addition, the concentration giving a half-maximal response (EC50) in experiment [2] was 9.71 µM (active); in experiment [3] it was 12.1 µM (not active). Besides, the AC50 in experiment [4] was > 100 µM (inactive); in experiment [5], 18.5 µM (active). In addition, in experiment [6], the half-maximal cytotoxic concentration (CC50) was > 25 µM (active).

For `Oc1ccc(C2=Nn3c(nnc3-c3ccco3)SC2)cc1O`, the AC50 is 4.01 µM (active) in experiment [8] and 6.4 µM (active) in [11]. The IC50 was 68.7 µM (not active) in [9]; > 50 µM (not active) in experiment [10]; > 50 µM (not active) in experiment [12]; > 59.6 µM (not active) in [13]; 12.2 µM (active) in experiment [14]; 6.16 µM (active) in experiment [15]. For the same compound, the values for the IC50 in experiment [16] and in experiment [17] were 1.84 µM (active) and 3.26 µM (active), respectively.

Turning to `COc1ccc(S(=O)(=O)n2c(N)nc3ccccc32)cc1`, the IC50 in [18] was > 5 µM (inactive).

With `C=CCNC(=O)Nc1ccc(F)cc1F`, the EC50 in [19] and in experiment [20] was > 55.7 µM (not active) throughout.

Usually IC50 stands for the concentration that inhibits the measured activity by half. Usually EC50 stands for the concentration needed to bring the measured effect to its halfway point. Usually AC50 stands for the concentration giving half of the maximal activity seen. In general, CC50 refers to the concentration that lowers cell viability or growth by half.
